System: hair follicles
Test: Hair follicle growth (elongation) in organ culture of scalp hair follicles, image analysis
Assay type: cell-based, human
Conditions: Table 7, day 10 of culture, pooled from two donors
Description: For each experiment and the control 9-12 follicles were used, plated at the density of 3 hair follicles/well in 24 well plates. Hair follicles were taken from the head of the scalp and transferred for cultivation in sterile 24 well plates using a modified Williams' Medium E. Cultivation took place for nine days, following 18 h of pre-incubation performed in order to select hair follicles suitable to be maintained in culture. Only those follicles showing a good vital stage and a growth of not less than 0.2 mm were used.
The growth performances observed in the treated hair follicles were compared to a control group, which was cultured in the same culture medium but free from extract supplement.
[…] In order to obtain these supplemented media, the required quantity of dir-MeOH extract was submitted to solvent evaporation and then redissolved again in DMSO. The final concentration of this DMSO-solved extract has been adjusted in order to supplement the experimental media with the desired extract quantity, obtaining at same time a final concentration in DMSO equal to 0.05%. The same concentration of DMSO has also been used in the medium for the culture of the control group.
The experiments were terminated after 10 days of cultivation (9 days of treatment). The growth of the hair follicles was studied by microphotography and subsequently determined by image analysis. All the hair follicles were photographed every two days.
1, were the hair follicle elongation is expressed as percentage ratio between the experimental groups and the untreated control: […]

CC/C=C\C/C=C\C/C=C\C/C=C\C/C=C\C/C=C\CCC(=O)O [DHA, docosahexaenoic acid]
Growth (%): Elongation in [%] of the control performance (0.003 μg/ml): 99.5% | Growth (%): Elongation in [%] of the control performance (0.03 μg/ml): 93.5% | Growth (%): Elongation in [%] of the control performance (0.3 μg/ml): 89.3%
